Common to all, as to assay type: in vivo, human
Assay [1] deals with melancholic MDD patients. Nature of the assay: Change of functional connectivities FC #1 and FC #2 (rs-fMRI) through antidepressant treatment.
Text: Next, contribution to ΔWLS was considered for each functional connectivity in order to consider an influence of SSRI (escitalopram) on each of the 12 pairs of functional connectivities.
Specifically, in preliminary and subsequent analysis of administration, the following numerical expression was used to calculate a contribution score of each functional connectivity.
That is, si represents a difference in average connectivity strength between the healthy control group and the MDD group weighted by the weight of the classifier. […] Further, in Expression 2, FCi^MDD represents reduction (a negative sign through subtraction). […] In other words, the fact that ci becomes negative means that FCi after treatment becomes closer to the corresponding FC of a healthy individual. In contrast, the fact that ci becomes positive means that FCi after treatment becomes closer to the MDD. The numbers of members in the healthy control group and in the MDD group are different from each other, and thus the significant difference between ci and si for each FCi is evaluated by a Welch's t-test. The Welch's t-test is calculated in accordance with the following numerical expression.
Assay [2] deals with melancholic MDD patients. Nature of the assay: WLS score (related weighted sum of 12 functional connectivities, rs-fMRI) before and after antidepressant administration. The settings on record: 24 remitted melancholic MDD patients, administered for 6 weeks to 8 weeks, FIG. 31c. The protocol: In this manner, a regression expression for classifying a melancholic MDD patient and a healthy individual, namely, a classifier, was created. Further, a related weighted sum (the associated weighted linear sum: WLS) was calculated as an indicator for determining whether each subject has the melancholic MDD or is healthy.
Next, whether an effect of escitalopram, which is a selective serotonin reuptake inhibitor (SSRI), can be evaluated by the WLS score was considered. A smoothed histogram of the WLS score of each of 24 remitted melancholic MDD patients shown in Table 1a, to whom escitalopram was administered for 6 weeks to 8 weeks, is shown in FIG. 31c.

Another assay relates to healthy subjects. Description: Change of FC #1 and FC #2 (rs-fMRI) on administration of SSRI to healthy subjects. The note with it: 19 healthy subjects, single administration, p=0.033; no difference before (p=0.18). The text has this: In a test by two-way analysis of variance, the functional connectivities of FC #1 and FC #2 have a significant temporal interaction through treatment (FC #number x time, F (1,23)=6.70, p=0.016), and a significant difference was not observed for each primary effect. […] In all the diagrams of FIG. 32 and FIG. 33, transition toward the positive direction indicates transition toward the direction of the melancholic MDD, whereas transition toward the negative direction indicates transition toward the direction of the healthy individual. This is because the sign of the weight of the melancholic MDD classifier was multiplied by the FC or the difference in FC. […] Eleven melancholic MDD patients (serotonin-norepinephrine reuptake inhibitor (SNRI) duloxetine was administered for 6 weeks to 8 weeks) gathered in Chiba were considered (FIG. 32c). […] Next, the changes of FC #1 and FC #2 at the time of administration of SSRI to healthy subjects (19 persons) were observed. […] There was no difference before treatment (p=0.18), and a significant relation was […] observed (FIG. 32d).

The values below come from patent publication US12573042B2, “Differentiation device, differentiation method for depression symptoms, determination method for level of depression symptoms, stratification method for depression patients, determination method for effects of treatment of depression symptoms, and brain activity training device” (ADVANCED TELECOMMUNICATIONS RESEARCH INSTITUTE INTERNATIONAL, priority 2017, dated 2026).

Each structure is given as a SMILES string.

For the compound `CNCC[C@H](Oc1cccc2ccccc12)c1cccs1` [duloxetine], the “difference between FC #1 and FC #2 after treatment” value with melancholic MDD patients [1] (11 melancholic MDD patients of Chiba, administered for 6 weeks to 8 weeks, paired t-test p=0.10, before treatment n.s. p=0.77) is recorded as “difference in trend level”. As for `CN(C)CCC[C@@]1(c2ccc(F)cc2)OCc2cc(C#N)ccc21` [escitalopram], the “distribution of the WLS score after administration” value in the assay with melancholic MDD patients [2] is recorded as “shifted toward the healthy control group”. Besides, the “difference between FC #1 and FC #2 after treatment” value in the assay on melancholic MDD patients [1] (Hiroshima cohort, corresponding t-test p=0.002, no difference before treatment (p=0.96)) is “significant difference was observed after treatment”. For the same compound, the “transition of FC #1 after treatment” value in the assay on melancholic MDD patients [1] (Hiroshima cohort, positive direction = direction of melancholic MDD) is “transitioned toward the positive direction”. As for `Fc1ccc([C@@H]2CCNC[C@H]2COc2ccc3c(c2)OCO3)cc1` [paroxetine], in the assay on healthy subjects, the “difference between FC #1 and FC #2 after administration” value was “significant difference between FC #1 and FC #2 was observed”.
